Data published in patent US20250082695A1, “USE OF GLYCEROL FOR INCREASING BUTYRATE PRODUCTION BY BACTERIA IN A CONSORTIUM” (PHARMABIOME AG, priority 2019, published 2025).

What was measured:
Assay type in all cases: cell-based
[1] = test system: bacterial consortium PB002; test: Continuous co-culture of consortium PB002 in a bioreactor, daily metabolite concentrations before and after glycerol supplementation; details: PB002, addition of 30 mM glycerol at day 38 of continuous culture
Source text: FIG. 1: Daily metabolite concentration of the continuously co-cultured bacterial consortium PB002 in a bioreactor before and after the supplementation of glycerol. Day of sampling from day 30 to day 55 after inoculation are represented on the x-axis and the concentrations of acetate, propionate, butyrate, formate, lactate, and succinate indicated in mM on the y-axis.
The concentrations of the produced metabolites were quantified by refractive index detection HPLC (Thermo Scientific Accela™, ThermoFisher Scientific; HPLC-RI)). […] Bacteria cultures to be analyzed were centrifuged at 14.000-x g for 10 min at 4° C. Filter-sterilized ([…]) supernatants were analyzed. […] Peaks were analyzed using AgilentEzChrome Elite software (Version: 3.3.2 SP2, Agilent Technologies, Inc. Pleasanton, USA). […]
(§1) The bioreactor was consecutively operated at pH 6.0 for 24 h in order to allow growth of primary degraders and subsequent consumption of the produced intermediate metabolites. Growth was monitored by base consumption and optical density. Metabolites were monitored using HPLC-RI as described above. […]
The consortium PB002 was continuously cultured in a bioreactor during 55 days. Metabolite concentrations were measured daily before and after glycerol supplementation (addition of 30 mM glycerol) at day 38.

[2] = test system: butyrate producing strains of group A6; test: qPCR quantification of absolute abundances of PB002 strains during continuous culture; details: glycerol supplementation
Source text: FIG. 2: Absolute abundances of all strains of the continuously cultured consortium PB002 in a bioreactor before and after the supplementation of glycerol. Abundances were quantified using qPCR and are indicated in copies of the 16S rRNA gene/ml of culture for the strains representing A1, A2, A3, A4, A5, A6, A7, A8, and A9.
To test maintenance of all bacterial strains of exemplary consortia PB002 and PB010 in the culture over time, qPCR quantification of the single strains of each consortium was performed using the primers listed in Table 3.
DNA from pellets of the fermentation effluent was extracted using the FastDNA™ SPIN Kit for Soil (MP Bio). Genomic DNA extracts were 10-fold diluted using DNA-free H2O. qPCRs were performed using Mastermix SYBR® green 2× and LowRox (Kapa Biosystems), primers (10 μM) and DNA-free H2O were used in a ABI 7500 FAST thermal cycler (Applied Biosystems) as recommended by the producer and quantified using standards of amplified whole 16S rRNA gene amplicon sequences of the strains cloned into the pGEMT easy vector (Promega, Madison WI, USA). Amplification of the whole 16S rRNA gene was performed with a combination of whole 16S rRNA gene amplification primers using one forward and one reverse primer from the primers listed in Table 4. qPCR quantification of the single strains is shown in copies of genomic 16S rRNA gene per ml of culture (FIG. 2). […]

[3] = test system: bacterial consortium PB010; test: Continuous co-culture of consortium PB010 in bioreactors with and without glycerol, absolute metabolite concentrations; details: PB010, medium with 30 mM glycerol vs without, day 8 after inoculation
Source text: FIG. 4: Absolute metabolite concentration of the continuously co-cultured bacterial consortium PB010 in a bioreactor at day 8 after inoculation: (1) cultured in a culture medium without glycerol, (2) cultured in a culture medium supplemented with glycerol. Absolute metabolites of the two reactors are represented on the x-axis and the concentrations of acetate, propionate, and butyrate are indicated in mM on the y-axis.
The concentrations of the produced metabolites were quantified by refractive index detection HPLC (Thermo Scientific Accela™, ThermoFisher Scientific; HPLC-RI)). HPLC-RI analysis was performed using a SecurityGuard Cartridges Carbo-H (4×3.0 mm) (Phenomenex, Torrence, USA) as guard-column connected to a Rezex ROA-Organic Acid H+ column (300×7.8 mm) (Phenomenex). Bacteria cultures to be analyzed were centrifuged at 14.000-x g for 10 min at 4° C. Filter-sterilized ([…]) supernatants were analyzed. Injection volume for each sample was […]. […] Peaks were analyzed using AgilentEzChrome Elite software (Version: 3.3.2 SP2, Agilent Technologies, Inc. Pleasanton, USA). […]
as §1

[4] = test system: bacterial consortium PB002; test: Continuous co-culture, relative end metabolite concentrations on day 2 and 8 (glycerol supplemented after day 2), PB002; details: PB002 (n=2), glycerol supplemented after day 2, day 8 vs day 2
Protocol: (§2) FIG. 5: Relative end metabolite concentration of the continuously co-cultured bacterial consortia PB002 (n=2) and PB010 (n=3) in bioreactors on day 2 and 8 of co-cultivation. All bioreactors were cultivated for 48 hours in a medium without glycerol.
(§3) The bacterial consortium PB002 and the bacterial consortium PB010 were continuously cultured in bioreactors. Relative end metabolite concentrations were determined on day 2 and 8 of co-cultivation.
(§4) All bioreactors were cultivated for 48 hours in a medium without glycerol.

[5] = test system: bacterial consortium PB010; test: Continuous co-culture, relative end metabolite concentrations on day 2 and 8 (glycerol supplemented after day 2), PB010; details: PB010 (n=3), glycerol supplemented after day 2, day 8 vs day 2
Protocol: as §2, §3, §4

Structure (SMILES): OCC(O)CO [glycerol]
- accumulation of the intermediate metabolites formate, lactate, succinate [1]: no accumulation
- butyrate production of the consortium [1]: enhanced butyrate production immediately
- abundance of butyrate producing strains of group A6 (16S rRNA gene copies/ml) [2]: positively affects abundance
- accumulation of succinate, lactate or formate [3]: no accumulation
- butyrate production of the consortium [3]: stimulates butyrate production
- butyrate production (relative end metabolite concentration) [4]: increase in butyrate production
- butyrate production (relative end metabolite concentration) [5]: increase in butyrate production
